Source: PubChem BioAssay AID248 (DTP/NCI, 2004)
Several values for one entry are separate records, joined by “and”; a condition that tells them apart may be missing. Identical values can stand only once. Inconclusive results and toxic doses are left out.

System: L1210 leukemia ip in BDF1 mice, survival T/C
Test: NCI In Vivo Anticancer Drug Screen. Data for tumor model L1210 Leukemia (intraperitoneal) in B6D2F1 (BDF1) mice
Conditions: higher = longer survival
Summary of the method: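 Survival endpoint. Drug-treated group vs vehicle group, expressed as T divided by C. Tumor passaged by transplantation.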

[1] = endpoint: mean survival time, dose: 100.0 mg/kg/injection, schedule: Q01DX001 (ip), vehicle: carboxymethylcellulose (CMC)
[2] = endpoint: mean survival time, dose: 200.0 mg/kg/injection, schedule: Q01DX001 (ip), vehicle: carboxymethylcellulose (CMC)
[3] = endpoint: mean survival time, dose: 400.0 mg/kg/injection, schedule: Q01DX001 (ip), vehicle: carboxymethylcellulose (CMC)

NCCN1C(=O)C2C3CCC(O3)C2C1=O (stereo not given)
T/C [1]: 97 % of control and 107 % of control | T/C (endpoint: mean survival time, dose: 100.0 mg/kg/injection, schedule: Q04DX002 (ip), vehicle: carboxymethylcellulose (CMC)): 97 % of control and 88 % of control | T/C (endpoint: mean survival time, dose: 100.0 mg/kg/injection, schedule: Q04DX003 (ip), vehicle: carboxymethylcellulose (CMC)): 101 % of control and 112 % of control | T/C [2]: 97 % of control and 104 % of control | T/C (endpoint: mean survival time, dose: 200.0 mg/kg/injection, schedule: Q04DX002 (ip), vehicle: carboxymethylcellulose (CMC)): 93 % of control and 94 % of control | T/C (endpoint: mean survival time, dose: 200.0 mg/kg/injection, schedule: Q04DX003 (ip), vehicle: carboxymethylcellulose (CMC)): 104 % of control and 105 % of control | T/C [3]: 96 % of control and 103 % of control | T/C (endpoint: mean survival time, dose: 400.0 mg/kg/injection, schedule: Q04DX002 (ip), vehicle: carboxymethylcellulose (CMC)): 108 % of control and 88 % of control | T/C (endpoint: mean survival time, dose: 400.0 mg/kg/injection, schedule: Q04DX003 (ip), vehicle: carboxymethylcellulose (CMC)): 96 % of control and 100 % of control

CC/C(=N\NC(N)=O)C(OC)OC
T/C [1]: 108 % of control | T/C [2]: 86 % of control | T/C [3]: 92 % of control

COc1cccc2c1C(=O)c1c(O)c3c(c(O)c1C2=O)C[C@@](O)(/C(C)=N/NC(=O)c1ccccc1)C[C@@H]3OC1CC(N)C(O)C(C)O1 (stereo not given in full)
T/C (endpoint: mean survival time, dose: 0.25 mg/kg/injection, schedule: Q04DX003 (ip), vehicle: water): 110 % of control | T/C (endpoint: mean survival time, dose: 0.5 mg/kg/injection, schedule: Q04DX003 (ip), vehicle: water): 111 % of control | T/C (endpoint: mean survival time, dose: 1.0 mg/kg/injection, schedule: Q04DX003 (ip), vehicle: water): 117 % of control | T/C (endpoint: mean survival time, dose: 4.0 mg/kg/injection, schedule: Q04DX003 (ip), vehicle: water): 124 % of control | T/C (endpoint: mean survival time, dose: 8.0 mg/kg/injection, schedule: Q04DX003 (ip), vehicle: water): 151 % of control | T/C (endpoint: mean survival time, dose: 16.0 mg/kg/injection, schedule: Q04DX003 (ip), vehicle: water): 179 % of control and 205 % of control | T/C (endpoint: mean survival time, dose: 24.0 mg/kg/injection, schedule: Q04DX003 (ip), vehicle: water): 120 % of control | T/C (endpoint: median survival time, dose: 0.25 mg/kg/injection, schedule: Q01DX009 (ip), vehicle: water): 94 % of control | T/C (endpoint: median survival time, dose: 0.25 mg/kg/injection, schedule: Q03HX024 (ip), vehicle: water): 105 % of control | T/C (endpoint: median survival time, dose: 0.5 mg/kg/injection, schedule: Q01DX009 (ip), vehicle: water): 110 % of control | T/C (endpoint: median survival time, dose: 0.5 mg/kg/injection, schedule: Q03HX024 (ip), vehicle: water): 110 % of control | T/C (endpoint: median survival time, dose: 0.78 mg/kg/injection, schedule: Q03HX008 (ip), vehicle: water): 122 % of control | T/C (endpoint: median survival time, dose: 0.78 mg/kg/injection, schedule: Q03HX024 (ip), vehicle: water): 111 % of control | T/C (endpoint: median survival time, dose: 1.0 mg/kg/injection, schedule: Q01DX009 (ip), vehicle: water): 115 % of control | T/C (endpoint: median survival time, dose: 1.0 mg/kg/injection, schedule: Q03HX008 (ip), vehicle: water): 115 % of control | T/C (endpoint: median survival time, dose: 1.17 mg/kg/injection, schedule: Q03HX024 (ip), vehicle: water): 100 % of control | T/C (endpoint: median survival time, dose: 1.2 mg/kg/injection, schedule: Q01DX009 (ip), vehicle: water): 105 % of control | T/C (endpoint: median survival time, dose: 1.2 mg/kg/injection, schedule: Q03HX008 (ip), vehicle: water): 105 % of control | T/C (endpoint: median survival time, dose: 1.25 mg/kg/injection, schedule: Q04DX003 (ip), vehicle: water): 105 % of control | T/C (endpoint: median survival time, dose: 1.75 mg/kg/injection, schedule: Q01DX009 (ip), vehicle: water): 94 % of control | T/C (endpoint: median survival time, dose: 1.75 mg/kg/injection, schedule: Q03HX024 (ip), vehicle: water): 111 % of control | T/C (endpoint: median survival time, dose: 2.0 mg/kg/injection, schedule: Q01DX009 (ip), vehicle: water): 110 % of control | T/C (endpoint: median survival time, dose: 2.5 mg/kg/injection, schedule: Q01DX001 (ip), vehicle: water): 115 % of control | T/C (endpoint: median survival time, dose: 2.5 mg/kg/injection, schedule: Q04DX003 (ip), vehicle: water): 121 % of control | T/C (endpoint: median survival time, dose: 2.6 mg/kg/injection, schedule: Q01DX009 (ip), vehicle: water): 122 % of control | T/C (endpoint: median survival time, dose: 2.6 mg/kg/injection, schedule: Q03HX008 (ip), vehicle: water): 105 % of control | T/C (endpoint: median survival time, dose: 2.6 mg/kg/injection, schedule: Q03HX024 (ip), vehicle: water): 94 % of control | T/C (endpoint: median survival time, dose: 2.6 mg/kg/injection, schedule: Q04DX003 (ip), vehicle: water): 111 % of control | T/C (endpoint: median survival time, dose: 3.9 mg/kg/injection, schedule: Q01DX001 (ip), vehicle: water): 111 % of control | T/C (endpoint: median survival time, dose: 3.9 mg/kg/injection, schedule: Q01DX009 (ip), vehicle: water): 122 % of control | T/C (endpoint: median survival time, dose: 3.9 mg/kg/injection, schedule: Q03HX008 (ip), vehicle: water): 100 % of control | T/C (endpoint: median survival time, dose: 3.9 mg/kg/injection, schedule: Q03HX024 (ip), vehicle: water): 88 % of control | T/C (endpoint: median survival time, dose: 3.9 mg/kg/injection, schedule: Q04DX003 (ip), vehicle: water): 111 % of control | T/C (endpoint: median survival time, dose: 4.0 mg/kg/injection, schedule: Q03HX008 (ip), vehicle: water): 152 % of control | T/C (endpoint: median survival time, dose: 5.0 mg/kg/injection, schedule: Q01DX001 (ip), vehicle: water): 115 % of control | T/C (endpoint: median survival time, dose: 5.0 mg/kg/injection, schedule: Q04DX003 (ip), vehicle: water): 105 % of control | T/C (endpoint: median survival time, dose: 5.9 mg/kg/injection, schedule: Q01DX001 (ip), vehicle: water): 100 % of control | T/C (endpoint: median survival time, dose: 5.9 mg/kg/injection, schedule: Q04DX003 (ip), vehicle: water): 100 % of control | T/C (endpoint: median survival time, dose: 8.9 mg/kg/injection, schedule: Q01DX001 (ip), vehicle: water): 122 % of control | T/C (endpoint: median survival time, dose: 8.9 mg/kg/injection, schedule: Q01DX009 (ip), vehicle: water): 94 % of control | T/C (endpoint: median survival time, dose: 8.9 mg/kg/injection, schedule: Q04DX003 (ip), vehicle: water): 111 % of control | T/C (endpoint: median survival time, dose: 10.0 mg/kg/injection, schedule: Q01DX001 (ip), vehicle: water): 115 % of control | T/C (endpoint: median survival time, dose: 10.0 mg/kg/injection, schedule: Q04DX003 (ip), vehicle: water): 163 % of control | T/C (endpoint: median survival time, dose: 13.3 mg/kg/injection, schedule: Q01DX001 (ip), vehicle: water): 111 % of control | T/C (endpoint: median survival time, dose: 13.3 mg/kg/injection, schedule: Q04DX003 (ip), vehicle: water): 105 % of control | T/C (endpoint: median survival time, dose: 20.0 mg/kg/injection, schedule: Q01DX001 (ip), vehicle: water): 157 % of control | T/C (endpoint: median survival time, dose: 20.0 mg/kg/injection, schedule: Q04DX003 (ip), vehicle: water): 100 % of control | T/C (endpoint: median survival time, dose: 20.0 mg/kg/injection, schedule: Q08DX002 (ip), vehicle: water): 89 % of control

CC1NNC(=O)C1c1ccc([N+](=O)[O-])cc1 (stereo not given)
T/C (endpoint: mean survival time, dose: 100.0 mg/kg/injection, schedule: Q01DX001 (ip), vehicle: saline): 94 % of control | T/C (endpoint: mean survival time, dose: 200.0 mg/kg/injection, schedule: Q01DX001 (ip), vehicle: saline): 94 % of control | T/C (endpoint: mean survival time, dose: 400.0 mg/kg/injection, schedule: Q01DX001 (ip), vehicle: saline): 95 % of control

Cc1cc(C(C)(C)C)ccc1SC(=O)Nc1cc([N+](=O)[O-])ccc1Cl
T/C (endpoint: mean survival time, dose: 100.0 mg/kg/injection, schedule: Q01DX001 (ip), vehicle: gum acacia): 94 % of control and 95 % of control | T/C (endpoint: mean survival time, dose: 100.0 mg/kg/injection, schedule: Q01DX009 (ip), vehicle: gum acacia): 103 % of control | T/C (endpoint: mean survival time, dose: 100.0 mg/kg/injection, schedule: Q04DX002 (ip), vehicle: gum acacia): 99 % of control and 105 % of control | T/C (endpoint: mean survival time, dose: 100.0 mg/kg/injection, schedule: Q04DX003 (ip), vehicle: gum acacia): 97 % of control and 108 % of control | T/C (endpoint: mean survival time, dose: 200.0 mg/kg/injection, schedule: Q01DX001 (ip), vehicle: gum acacia): 95 % of control and 97 % of control | T/C (endpoint: mean survival time, dose: 200.0 mg/kg/injection, schedule: Q01DX009 (ip), vehicle: gum acacia): 102 % of control | T/C (endpoint: mean survival time, dose: 200.0 mg/kg/injection, schedule: Q04DX002 (ip), vehicle: gum acacia): 103 % of control and 115 % of control | T/C (endpoint: mean survival time, dose: 200.0 mg/kg/injection, schedule: Q04DX003 (ip), vehicle: gum acacia): 96 % of control and 99 % of control | T/C (endpoint: mean survival time, dose: 400.0 mg/kg/injection, schedule: Q01DX001 (ip), vehicle: gum acacia): 94 % of control and 95 % of control | T/C (endpoint: mean survival time, dose: 400.0 mg/kg/injection, schedule: Q04DX002 (ip), vehicle: gum acacia): 101 % of control and 105 % of control | T/C (endpoint: mean survival time, dose: 400.0 mg/kg/injection, schedule: Q04DX003 (ip), vehicle: gum acacia): 101 % of control and 91 % of control

CCCCc1c(C)nc(N)nc1N
T/C (endpoint: mean survival time, dose: 3.12 mg/kg/injection, schedule: Q01DX001 (ip), vehicle: Klucel (hydroxypropylcellulose) (HPC)): 105 % of control | T/C (endpoint: mean survival time, dose: 6.25 mg/kg/injection, schedule: Q01DX001 (ip), vehicle: Klucel (hydroxypropylcellulose) (HPC)): 110 % of control | T/C (endpoint: mean survival time, dose: 12.5 mg/kg/injection, schedule: Q01DX001 (ip), vehicle: Klucel (hydroxypropylcellulose) (HPC)): 111 % of control | T/C (endpoint: mean survival time, dose: 25.0 mg/kg/injection, schedule: Q01DX001 (ip), vehicle: saline): 98 % of control

O=C(/C(=C\c1ccccc1)CO)c1ccccc1
T/C (endpoint: mean survival time, dose: 12.5 mg/kg/injection, schedule: Q01DX009 (ip), vehicle: saline with Tween-80): 89 % of control | T/C (endpoint: mean survival time, dose: 25.0 mg/kg/injection, schedule: Q01DX009 (ip), vehicle: saline with Tween-80): 89 % of control | T/C (endpoint: mean survival time, dose: 50.0 mg/kg/injection, schedule: Q01DX009 (ip), vehicle: saline with Tween-80): 87 % of control | T/C (endpoint: mean survival time, dose: 62.0 mg/kg/injection, schedule: Q01DX009 (ip), vehicle: saline with Tween-80): 106 % of control

O=C(OCn1ncc2ccc([N+](=O)[O-])cc21)c1ccc(Cl)c(Cl)c1
T/C [1]: 101 % of control | T/C [2]: 93 % of control | T/C [3]: 95 % of control
